Measurements taken from paper PMC2887688 (Journal of biomolecular screening, 2010).
“Also recorded” adds a separate entry of the source. Blank lines part the entries; values can stand above or below the molecule they belong to.

Columns and labels:
hsFATP4 = hsFATP4 (Homo sapiens, UniProt Q6P1M0); test: BODIPY-FA; type: cell-based; conditions: hsFATP4 cells
hsFATP5 = molecular target: T1, hsFATP5 (Homo sapiens, UniProt Q9Y2P5); test: BODIPY-FA; type: cell-based; conditions: hsFATP5 cells, data not shown
T1 sequence (Q9Y2P5 1-690): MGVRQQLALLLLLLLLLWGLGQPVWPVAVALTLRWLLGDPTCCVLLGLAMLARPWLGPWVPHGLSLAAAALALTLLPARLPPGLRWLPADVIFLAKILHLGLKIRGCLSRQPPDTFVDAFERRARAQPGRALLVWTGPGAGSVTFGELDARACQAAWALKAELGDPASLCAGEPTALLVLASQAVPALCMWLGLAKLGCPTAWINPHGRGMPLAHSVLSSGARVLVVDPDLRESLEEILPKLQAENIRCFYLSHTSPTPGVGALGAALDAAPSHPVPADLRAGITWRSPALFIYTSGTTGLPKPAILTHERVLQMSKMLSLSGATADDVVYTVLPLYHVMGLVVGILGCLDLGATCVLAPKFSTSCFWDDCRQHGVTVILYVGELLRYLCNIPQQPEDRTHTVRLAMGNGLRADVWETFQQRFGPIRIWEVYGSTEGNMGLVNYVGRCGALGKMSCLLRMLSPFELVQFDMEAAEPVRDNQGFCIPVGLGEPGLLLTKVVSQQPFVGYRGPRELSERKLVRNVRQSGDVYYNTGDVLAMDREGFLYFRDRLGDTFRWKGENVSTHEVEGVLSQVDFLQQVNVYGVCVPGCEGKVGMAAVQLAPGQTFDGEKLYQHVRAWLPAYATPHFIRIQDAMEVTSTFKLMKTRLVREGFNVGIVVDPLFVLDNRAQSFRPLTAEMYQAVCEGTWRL

3T3-L1 adipocytes = test: LCFA; type: cell-based, murine; conditions: insulin 0.2 – 1.7 uM
[1] = system: undifferentiated 3T3-L1 preadipocytes; test: BODIPY-FA uptake in undifferentiated 3T3-L1 preadipocytes/fibroblasts, FLIPR; type: cell-based, murine

Chain of hsFATP4 (Q6P1M0 whole entry): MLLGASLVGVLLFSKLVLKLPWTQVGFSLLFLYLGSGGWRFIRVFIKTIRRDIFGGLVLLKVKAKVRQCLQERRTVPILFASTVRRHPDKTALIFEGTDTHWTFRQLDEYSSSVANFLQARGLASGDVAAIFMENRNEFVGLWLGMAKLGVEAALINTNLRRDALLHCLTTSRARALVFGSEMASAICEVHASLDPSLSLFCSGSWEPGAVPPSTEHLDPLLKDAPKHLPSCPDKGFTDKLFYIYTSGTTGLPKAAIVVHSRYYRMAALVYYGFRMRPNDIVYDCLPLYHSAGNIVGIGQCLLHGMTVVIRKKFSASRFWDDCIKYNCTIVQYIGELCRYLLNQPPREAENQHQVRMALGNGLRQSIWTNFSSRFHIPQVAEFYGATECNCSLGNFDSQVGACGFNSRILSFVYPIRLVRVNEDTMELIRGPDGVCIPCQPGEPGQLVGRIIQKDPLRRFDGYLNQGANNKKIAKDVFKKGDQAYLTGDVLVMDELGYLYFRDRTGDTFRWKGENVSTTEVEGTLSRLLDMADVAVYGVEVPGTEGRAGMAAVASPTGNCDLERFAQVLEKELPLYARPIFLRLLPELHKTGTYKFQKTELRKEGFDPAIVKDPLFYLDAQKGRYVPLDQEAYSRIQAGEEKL

inhibition of fatty acid uptake by FATP4 (in words) (hsFATP4; FLIPR concentration-response): did not inhibit
inhibition of fatty acid uptake by FATP5 (in words) (hsFATP5): did not inhibit
Molecule: CCCCCCCCCCCCCCCC(=O)O [palmitic acid]

Molecule: insulin: adipogenic hormone insulin, enhances LCFA uptake in adipocytes
maximal insulin-induced uptake over the baseline of adipocytes (3T3-L1 adipocytes): about two- to three-fold
effect on uptake in undifferentiated 3T3-L1 preadipocytes/fibroblasts [1]: much weaker effects; also recorded: minimal effect

increase of fatty acid uptake signal by hsFATP4 at high concentration (in words) (hsFATP4; FLIPR): apparent signal increase at 100 uM
Molecule: C[C@H](CCC(=O)O)[C@H]1CC[C@H]2[C@@H]3[C@@H](O)C[C@@H]4C[C@H](O)CC[C@]4(C)[C@H]3CC[C@]12C [ursodiol, ursodeoxycholic acid]
